Article PMC10709440, “High-throughput ligand profile characterization in novel cell lines expressing seven heterologous insect olfactory receptors for the detection of volatile plant biomarkers” (Scientific Reports, 2023)
Like-named read-outs stand apart in the source and are kept apart here.

Legend:
Drosophila OR85b = target: T1, Drosophila OR85b (Drosophila melanogaster, UniProt Q9VHQ7); experiment: Calcium ion fluorescence (GCaMP6) assay, OR85b stable HEK293 cell line; type: cell-based; conditions: for activation at 1 µM / activation at 10 µM / activation at 100 µM: HEK293, read-out: OR85b response (VUAA1-normalized response); for Average response: VUAA1-normalized response, mean of biological replicates
T1 construct: expressed in transfected cells
T1 sequence (Q9VHQ7 1-390): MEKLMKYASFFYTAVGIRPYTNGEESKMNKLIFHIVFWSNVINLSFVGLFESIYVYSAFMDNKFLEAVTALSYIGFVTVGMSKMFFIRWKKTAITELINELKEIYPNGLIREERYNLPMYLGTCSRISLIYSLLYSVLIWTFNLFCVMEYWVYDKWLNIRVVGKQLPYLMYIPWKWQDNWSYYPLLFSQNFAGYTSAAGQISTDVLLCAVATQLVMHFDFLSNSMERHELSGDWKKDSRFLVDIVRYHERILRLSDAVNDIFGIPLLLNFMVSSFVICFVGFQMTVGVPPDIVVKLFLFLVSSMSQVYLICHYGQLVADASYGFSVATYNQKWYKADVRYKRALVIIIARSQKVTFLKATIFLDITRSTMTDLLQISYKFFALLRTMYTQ
T1 sequence (Q9VNB5 1-486 partner): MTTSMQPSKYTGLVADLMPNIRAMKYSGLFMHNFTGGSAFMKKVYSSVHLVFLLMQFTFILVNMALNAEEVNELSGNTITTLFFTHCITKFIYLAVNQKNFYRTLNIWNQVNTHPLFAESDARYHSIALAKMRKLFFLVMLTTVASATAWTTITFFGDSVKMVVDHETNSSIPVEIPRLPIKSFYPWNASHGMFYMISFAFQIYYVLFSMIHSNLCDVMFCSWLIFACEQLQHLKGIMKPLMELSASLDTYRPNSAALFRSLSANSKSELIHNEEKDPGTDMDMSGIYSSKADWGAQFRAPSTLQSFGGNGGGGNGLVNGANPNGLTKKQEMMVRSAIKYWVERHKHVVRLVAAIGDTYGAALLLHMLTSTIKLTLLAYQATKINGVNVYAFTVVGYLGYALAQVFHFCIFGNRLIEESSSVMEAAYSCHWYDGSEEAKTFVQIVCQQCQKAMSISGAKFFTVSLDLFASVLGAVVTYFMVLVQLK
Procedure, shortened: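 Responses are VUAA1-normalized ΔF: each VOC-evoked calcium signal, (FMAX−F0)/F0 over 30 s after injection, divided by the same line's mean 50 µM VUAA1 response. Cells were doxycycline-induced HEK293 with GCaMP6 and the cognate Drosophila OR, in HEPES buffer pH 7.3; ligands tested 0.01–100 μM.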

OR10a = test system: OR10a; parameters: method as in earlier work; conditions: DoOR database value, ref DoOR, cited from earlier work
OR13a = test system: OR13a; parameters: method as in earlier work; conditions: DoOR database value, ref DoOR, cited from earlier work
OR47a = test system: OR47a; parameters: method as in earlier work; conditions: DoOR database value, ref DoOR, cited from earlier work
OR49b = test system: OR49b; parameters: method as in earlier work; conditions: DoOR database value, ref DoOR, cited from earlier work
OR85b = test system: OR85b; parameters: method as in earlier work; conditions: DoOR database value, ref DoOR, cited from earlier work
OR98a = test system: OR98a; parameters: method as in earlier work; conditions: DoOR database value, ref DoOR, cited from earlier work
[1] = concentration 1, normalized fluorescence change, values below 0.05 threshold given as 0
[2] = concentration 10, normalized fluorescence change, values below 0.05 threshold given as 0
[3] = concentration 100, normalized fluorescence change, values below 0.05 threshold given as 0
[4] = ligand concentration 1 (unit not given), threshold 0.05, below shown as 0
[5] = ligand concentration 10 (unit not given), threshold 0.05, below shown as 0
[6] = ligand concentration 100 (unit not given), threshold 0.05, below shown as 0

| Structure (SMILES) | activation at 1 µM (Drosophila OR85b) | activation at 10 µM (Drosophila OR85b) | activation at 100 µM (Drosophila OR85b) | Average response (Drosophila OR85b; OR85b cell line, cc. 1 µM) | Average response (Drosophila OR85b; OR85b cell line, cc. 10 µM) | Average response (Drosophila OR85b; OR85b cell line, cc. 100 µM) | DF norm AVERAGE OR85b (Drosophila OR85b; [1]) | DF norm AVERAGE OR85b (Drosophila OR85b; [2]) | DF norm AVERAGE OR85b (Drosophila OR85b; [3]) | OR10a DoOR response (OR10a) | OR13a DoOR response (OR13a) | OR47a DoOR response (OR47a) | OR49b DoOR response (OR49b) | OR85b DoOR response (OR85b) | OR98a DoOR response (OR98a) | DF norm AVERAGE OR85b (Drosophila OR85b; [4]) | DF norm AVERAGE OR85b (Drosophila OR85b; [5]) | DF norm AVERAGE OR85b (Drosophila OR85b; [6]) | other results |
| --- | --- | --- | --- | --- | --- | --- | --- | --- | --- | --- | --- | --- | --- | --- | --- | --- | --- | --- | --- |
| C=C1CC/C=C(\C)CC[C@@H]2[C@@H]1CC2(C)C [(-)-trans-caryophyllene] | 0% | 0% | 0% | 0.00 | 0.00 | 0.0238 | 0 | 0 | 0 | -0.002 | 0.0851 | -0.002 | 0.001 | 0.053 | -0.004 | – | – | – | – |
| CC1=CC[C@@H](C(C)(C)O)CC1 [alpha-terpineol] | 0% | 0% | 0% | 0.05 | 0.03 | 0.02 | – | – | – | -0.005 | 0.023 | 0.018 | 0.006 | 0.11 | 0.033 | 0 | 0 | 0 | – |
| CCOC(=O)CC [ethyl propionate] | 0% | 0% | 9% | 0.00 | 0.037 | 0.09 | – | – | – | 0.064 | 0.034 | 0.16 | 0.017 | 0.066 | 0.08 | 0 | 0 | 0.09327 | – |
| CCCCOC(C)=O [butyl acetate] | 0% | 0% | 0% | 0.00 | 0.00 | 0.00 | – | – | – | 0.27 | 0.31 | 0.77 | 0.035 | 0.78 | 0.70 | 0 | 0 | 0 | – |
| CC(=O)c1ccccc1 [acetophenone] | 0% | 0% | 0% | 0.00 | 0.00 | 0.00 | – | – | – | 0.64 | 0.02 | 0.11 | 0.07 | 0.04 | 0.21 | 0 | 0 | 0 | – |
| CCCCCC(O)CC (stereo not drawn) [3-octanol] | 0% | 0% | 0% | 0.00 | 0.00 | 0.0171 | 0 | 0 | 0 | 0.12 | 0.58 | 0.47 | 0.03 | 0.68 | 0.59 | – | – | – | – |
| C=CC(O)CCCCC (stereo not drawn) [1-octen-3-ol] | 0% | 0% | 8% | 0.00 | 0.0043 | 0.08 | 0 | 0 | 0.08325 | 0.019 | 0.78 | 0.25 | 0.016 | 0.53 | 0.58 | – | – | – | – |
| CC1=CCC2CC1C2(C)C (stereo not drawn) [alpha-pinene] | 0% | 0% | 0% | 0.03 | 0.00 | 0.0358 | – | – | – | 0.004 | 0.10 | 0.035 | 0.018 | 0.15 | 0.43 | 0 | 0 | 0 | – |
| CC/C=C\CCO [Z-3-hexenol] | – | – | – | – | – | – | – | – | – | – | – | – | – | – | – | – | – | – | OR85b response (VUAA1-normalized) at 1 μM (Drosophila OR85b; OR85b cell line, VOC concentration 1 μM): 0.0533; OR85b response (VUAA1-normalized) at 10 μM (Drosophila OR85b; OR85b cell line, VOC concentration 10 μM): 0.00; OR85b response (VUAA1-normalized) at 100 μM (Drosophila OR85b; OR85b cell line, VOC concentration 100 μM): 0.00; OR10a DoOR response (OR10a; OR10a): 0.007; OR13a DoOR response (OR13a; OR13a): 0.37; OR47a DoOR response (OR47a; OR47a): 0.14; OR49b DoOR response (OR49b; OR49b): 0.07; OR85b DoOR response (OR85b; OR85b): 0.60; OR98a DoOR response (OR98a; OR98a): 0.44 |
| CC(=O)OCCC(C)C [isopentyl acetate] | 0% | 7% | 0% | 0.00 | 0.07 | 0.0239 | – | – | – | 0.42 | 0.15 | 0.41 | 0.027 | 0.34 | 0.64 | 0 | 0.07146 | 0 | – |
